Results published in the NIST ThermoML archive (doi:10.1021/je500395f).

Settings: Fluid (supercritical or subcritical phases), Coaxial cylinder method

CCC [propane]
Settings | thermal conductivity [W/m/K]
373.2 K, 4574 kPa | 0.0745
373.2 K, 4590 kPa | 0.0724
373.2 K, 4605 kPa | 0.07168
373.2 K, 4610 kPa | 0.07119
373.2 K, 4640 kPa | 0.06975
373.2 K, 4660 kPa | 0.06887
373.2 K, 4680 kPa | 0.06797
373.2 K, 4740 kPa | 0.06707
373.2 K, 4900 kPa | 0.06613
373.2 K, 5100 kPa | 0.06615
373.2 K, 5540 kPa | 0.06698
373.2 K, 6300 kPa | 0.06878
373.2 K, 6700 kPa | 0.06932
373.2 K, 7400 kPa | 0.07086
373.2 K, 7780 kPa | 0.07152
373.2 K, 8900 kPa | 0.0735
373.2 K, 10500 kPa | 0.0764
373.2 K, 11900 kPa | 0.07818
374.28 K, 2900 kPa | 0.03164
374.28 K, 3087 kPa | 0.03271
374.28 K, 3424 kPa | 0.03453
374.28 K, 3945 kPa | 0.03887
374.28 K, 3975 kPa | 0.03918
374.28 K, 4080 kPa | 0.0412
374.28 K, 4200 kPa | 0.04376
374.28 K, 4280 kPa | 0.04558
374.28 K, 4320 kPa | 0.04719
374.28 K, 4380 kPa | 0.04961
374.28 K, 4425 kPa | 0.05238
374.28 K, 4440 kPa | 0.05378
374.28 K, 4450 kPa | 0.05483
374.28 K, 4460 kPa | 0.05626
374.28 K, 4475 kPa | 0.05823
374.28 K, 4485 kPa | 0.0596
374.28 K, 4510 kPa | 0.06324
374.28 K, 4515 kPa | 0.06424
374.28 K, 4518 kPa | 0.06502
374.28 K, 4520 kPa | 0.06551
374.28 K, 4535 kPa | 0.06874
374.28 K, 4545 kPa | 0.07123
374.28 K, 4550 kPa | 0.07267
374.28 K, 4560 kPa | 0.07525
374.28 K, 4565 kPa | 0.07664
374.28 K, 4570 kPa | 0.07786
374.28 K, 4575 kPa | 0.07875
374.28 K, 4580 kPa | 0.07954
374.28 K, 4585 kPa | 0.08016
374.28 K, 4590 kPa | 0.08076
374.28 K, 4595 kPa | 0.08112
374.28 K, 4600 kPa | 0.08148
374.28 K, 4605 kPa | 0.0816
374.28 K, 4610 kPa | 0.08117
374.28 K, 4615 kPa | 0.08036
374.28 K, 4620 kPa | 0.07961
374.28 K, 4625 kPa | 0.07854
374.28 K, 4630 kPa | 0.07755
374.28 K, 4640 kPa | 0.07599
374.28 K, 4650 kPa | 0.07477
374.28 K, 4670 kPa | 0.07334
374.28 K, 4685 kPa | 0.0724
374.28 K, 4710 kPa | 0.07096
374.28 K, 4720 kPa | 0.07026
374.28 K, 4740 kPa | 0.06979
374.28 K, 4760 kPa | 0.06909
374.28 K, 4780 kPa | 0.06868
374.28 K, 4820 kPa | 0.06778
374.28 K, 4900 kPa | 0.06693
374.28 K, 5000 kPa | 0.06603
374.28 K, 5200 kPa | 0.06584
374.28 K, 5500 kPa | 0.06645
374.28 K, 5798 kPa | 0.06707
374.28 K, 6323 kPa | 0.06829
374.28 K, 6760 kPa | 0.06867
375.1 K, 3780 kPa | 0.03695
375.1 K, 3790 kPa | 0.03732
375.1 K, 3794 kPa | 0.03755
375.1 K, 4210 kPa | 0.04276
375.1 K, 4300 kPa | 0.04526
375.1 K, 4315 kPa | 0.04587
375.1 K, 4350 kPa | 0.04739
375.1 K, 4400 kPa | 0.04912
375.1 K, 4450 kPa | 0.05149
375.1 K, 4510 kPa | 0.05552
375.1 K, 4520 kPa | 0.05654
375.1 K, 4525 kPa | 0.0572
375.1 K, 4535 kPa | 0.05845
375.1 K, 4545 kPa | 0.05974
375.1 K, 4550 kPa | 0.06052
375.1 K, 4555 kPa | 0.06115
375.1 K, 4560 kPa | 0.06195
375.1 K, 4565 kPa | 0.06257
375.1 K, 4570 kPa | 0.06325
375.1 K, 4575 kPa | 0.06422
375.1 K, 4580 kPa | 0.06509
375.1 K, 4585 kPa | 0.06611
375.1 K, 4590 kPa | 0.06706
375.1 K, 4595 kPa | 0.06795
375.1 K, 4600 kPa | 0.06877
375.1 K, 4605 kPa | 0.06965
375.1 K, 4610 kPa | 0.07049
375.1 K, 4620 kPa | 0.07215
375.1 K, 4625 kPa | 0.07291
375.1 K, 4630 kPa | 0.07371
375.1 K, 4635 kPa | 0.07453
375.1 K, 4640 kPa | 0.07507
375.1 K, 4645 kPa | 0.07542
375.1 K, 4650 kPa | 0.07583
375.1 K, 4655 kPa | 0.07611
375.1 K, 4660 kPa | 0.07639
375.1 K, 4665 kPa | 0.07653
375.1 K, 4670 kPa | 0.07625
375.1 K, 4675 kPa | 0.07597
375.1 K, 4680 kPa | 0.07569
375.1 K, 4685 kPa | 0.07544
375.1 K, 4695 kPa | 0.07466
375.1 K, 4700 kPa | 0.07412
375.1 K, 4710 kPa | 0.07346
375.1 K, 4720 kPa | 0.07261
375.1 K, 4740 kPa | 0.07111
375.1 K, 4750 kPa | 0.07062
375.1 K, 4770 kPa | 0.06965
375.1 K, 4790 kPa | 0.06852
375.1 K, 4800 kPa | 0.06807
375.1 K, 4850 kPa | 0.06676
375.1 K, 4890 kPa | 0.06599
375.1 K, 4920 kPa | 0.06554
375.1 K, 4950 kPa | 0.06533
375.1 K, 5040 kPa | 0.06533
375.1 K, 5140 kPa | 0.0653
375.1 K, 5160 kPa | 0.06529
375.1 K, 5226 kPa | 0.06525
375.1 K, 5322 kPa | 0.06576
375.1 K, 5580 kPa | 0.06644
375.1 K, 5830 kPa | 0.06691
375.1 K, 6480 kPa | 0.06842
375.1 K, 6540 kPa | 0.06846
375.1 K, 7140 kPa | 0.06958
375.1 K, 8020 kPa | 0.07114
375.1 K, 8950 kPa | 0.07271
375.1 K, 9500 kPa | 0.07355
375.1 K, 9700 kPa | 0.0739
375.1 K, 10360 kPa | 0.075
375.9 K, 3110 kPa | 0.03373
375.9 K, 3134 kPa | 0.0338
375.9 K, 3250 kPa | 0.03412
375.9 K, 3300 kPa | 0.03433
375.9 K, 3550 kPa | 0.03563
375.9 K, 3600 kPa | 0.03595
375.9 K, 3800 kPa | 0.03747
375.9 K, 4000 kPa | 0.03934
375.9 K, 4050 kPa | 0.03986
375.9 K, 4125 kPa | 0.04091
375.9 K, 4250 kPa | 0.04345
375.9 K, 4350 kPa | 0.04589
375.9 K, 4400 kPa | 0.04729
375.9 K, 4450 kPa | 0.04877
375.9 K, 4510 kPa | 0.05175
375.9 K, 4540 kPa | 0.0535
375.9 K, 4560 kPa | 0.05503
375.9 K, 4570 kPa | 0.05607
375.9 K, 4580 kPa | 0.05714
375.9 K, 4590 kPa | 0.05826
375.9 K, 4600 kPa | 0.05949
375.9 K, 4620 kPa | 0.06128
375.9 K, 4630 kPa | 0.06278
375.9 K, 4640 kPa | 0.06448
375.9 K, 4650 kPa | 0.06572
375.9 K, 4660 kPa | 0.06701
375.9 K, 4670 kPa | 0.06835
375.9 K, 4680 kPa | 0.06967
375.9 K, 4690 kPa | 0.07058
375.9 K, 4700 kPa | 0.07156
375.9 K, 4720 kPa | 0.07283
375.9 K, 4740 kPa | 0.07257
375.9 K, 4760 kPa | 0.07206
375.9 K, 4780 kPa | 0.07106
375.9 K, 4800 kPa | 0.0705
375.9 K, 4820 kPa | 0.06995
375.9 K, 4840 kPa | 0.06936
375.9 K, 4880 kPa | 0.06835
375.9 K, 4950 kPa | 0.06708
375.9 K, 5050 kPa | 0.06621
375.9 K, 5100 kPa | 0.0662
375.9 K, 5200 kPa | 0.06603
375.9 K, 5250 kPa | 0.06588
375.9 K, 5500 kPa | 0.06634
375.9 K, 5550 kPa | 0.06631
375.9 K, 5700 kPa | 0.06671
375.9 K, 5820 kPa | 0.06682
375.9 K, 5900 kPa | 0.06696
375.9 K, 6000 kPa | 0.06714
375.9 K, 6200 kPa | 0.06746
375.9 K, 6800 kPa | 0.06884
375.9 K, 7200 kPa | 0.0696
375.9 K, 7800 kPa | 0.07056
375.9 K, 8500 kPa | 0.072
375.9 K, 9000 kPa | 0.07288
375.9 K, 9190 kPa | 0.07314
375.9 K, 9806 kPa | 0.07405
375.9 K, 10000 kPa | 0.07439
375.9 K, 11000 kPa | 0.07591
375.9 K, 11028 kPa | 0.07597
375.9 K, 11500 kPa | 0.0765
375.9 K, 12000 kPa | 0.07724
375.9 K, 13000 kPa | 0.07845
381 K, 3253 kPa | 0.03426
381 K, 3260 kPa | 0.03429
381 K, 3320 kPa | 0.03451
381 K, 3428 kPa | 0.03498
381 K, 3580 kPa | 0.03558
381 K, 3820 kPa | 0.03665
381 K, 3880 kPa | 0.03705
381 K, 4040 kPa | 0.03825
381 K, 4100 kPa | 0.0389
381 K, 4220 kPa | 0.04027
381 K, 4520 kPa | 0.04459
381 K, 4560 kPa | 0.04539
381 K, 4600 kPa | 0.04618
381 K, 4660 kPa | 0.04756
381 K, 4740 kPa | 0.04988
381 K, 4780 kPa | 0.05126
381 K, 4800 kPa | 0.05187
381 K, 4860 kPa | 0.05418
381 K, 4880 kPa | 0.05506
381 K, 4900 kPa | 0.05594
381 K, 4920 kPa | 0.05685
381 K, 4960 kPa | 0.05866
381 K, 5000 kPa | 0.06046
381 K, 5020 kPa | 0.06124
381 K, 5040 kPa | 0.06198
381 K, 5060 kPa | 0.06268
381 K, 5100 kPa | 0.06374
381 K, 5150 kPa | 0.06448
381 K, 5200 kPa | 0.06448
381 K, 5250 kPa | 0.06475
381 K, 5300 kPa | 0.06444
381 K, 5350 kPa | 0.06439
381 K, 5390 kPa | 0.06427
381 K, 5450 kPa | 0.06435
381 K, 5550 kPa | 0.06436
381 K, 5700 kPa | 0.06435
381 K, 5900 kPa | 0.06423
381 K, 6200 kPa | 0.06503
381 K, 6500 kPa | 0.06554
381 K, 6900 kPa | 0.0664
381 K, 7162 kPa | 0.06699
381 K, 7300 kPa | 0.06714
381 K, 7583 kPa | 0.06767
381 K, 9036 kPa | 0.07035
381 K, 10110 kPa | 0.07235
381 K, 11000 kPa | 0.07371
381 K, 12000 kPa | 0.07531
381 K, 14750 kPa | 0.07855
